In ChEMBL document CHEMBL1208707, “T-type calcium channel blockers: spiro-piperidine azetidines and azetidinones-optimization, design and synthesis” (Bioorg Med Chem Lett, 2010):

Tests used:
[1] = molecular target: T1, Voltage-dependent T-type calcium channel subunit alpha-1H (Homo sapiens, UniProt O95180); experiment: Inhibition of human CaV3.2 expressed in HEK293 cells at -100 mV membrane potential by whole cell path clamp method; format: cell-based
[2] = molecular target: T1, Voltage-dependent T-type calcium channel subunit alpha-1H; experiment: Inhibition of human CaV3.2 expressed in HEK293 cells at -100 mV membrane potential by Ionworks HT assay; format: cell-based
[3] = molecular target: Transient receptor potential cation channel subfamily V member 1 (Homo sapiens) (UniProt Q8NER1); experiment: Inhibition of TRPV1 expressed in HEK293 assessed as capsaicin activation cells at 3.3 ug/mL by FLIPR assay; format: cell-based
Sequence of Transient receptor potential cation channel subfamily V member 1 (Homo sapiens) (Q8NER1 whole entry): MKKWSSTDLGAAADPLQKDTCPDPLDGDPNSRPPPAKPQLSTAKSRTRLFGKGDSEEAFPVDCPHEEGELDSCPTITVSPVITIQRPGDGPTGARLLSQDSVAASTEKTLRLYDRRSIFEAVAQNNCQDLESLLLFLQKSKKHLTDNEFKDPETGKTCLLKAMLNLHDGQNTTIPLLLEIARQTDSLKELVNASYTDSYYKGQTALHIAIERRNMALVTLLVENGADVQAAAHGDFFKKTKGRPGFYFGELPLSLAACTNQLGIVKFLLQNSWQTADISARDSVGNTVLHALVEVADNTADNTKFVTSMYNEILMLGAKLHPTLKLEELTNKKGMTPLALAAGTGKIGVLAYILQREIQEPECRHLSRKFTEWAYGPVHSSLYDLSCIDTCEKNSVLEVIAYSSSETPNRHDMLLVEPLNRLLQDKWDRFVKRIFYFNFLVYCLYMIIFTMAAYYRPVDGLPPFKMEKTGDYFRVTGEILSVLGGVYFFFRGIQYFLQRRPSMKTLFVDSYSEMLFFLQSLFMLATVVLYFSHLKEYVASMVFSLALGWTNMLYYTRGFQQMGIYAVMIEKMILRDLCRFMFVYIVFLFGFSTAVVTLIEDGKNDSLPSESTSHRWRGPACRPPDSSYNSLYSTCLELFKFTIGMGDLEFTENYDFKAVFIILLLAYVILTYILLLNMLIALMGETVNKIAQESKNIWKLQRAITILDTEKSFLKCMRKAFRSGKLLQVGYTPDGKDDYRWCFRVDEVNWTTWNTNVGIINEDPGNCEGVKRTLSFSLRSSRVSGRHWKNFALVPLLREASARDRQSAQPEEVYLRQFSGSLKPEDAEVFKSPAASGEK

[4] = (§1) Protein binding in rat plasma; format: ADME, cell-free; conditions: read-out: PPB (converted)
Plasma = experiment: as §1; format: ADME, cell-free

T1 sequence (O95180 whole entry): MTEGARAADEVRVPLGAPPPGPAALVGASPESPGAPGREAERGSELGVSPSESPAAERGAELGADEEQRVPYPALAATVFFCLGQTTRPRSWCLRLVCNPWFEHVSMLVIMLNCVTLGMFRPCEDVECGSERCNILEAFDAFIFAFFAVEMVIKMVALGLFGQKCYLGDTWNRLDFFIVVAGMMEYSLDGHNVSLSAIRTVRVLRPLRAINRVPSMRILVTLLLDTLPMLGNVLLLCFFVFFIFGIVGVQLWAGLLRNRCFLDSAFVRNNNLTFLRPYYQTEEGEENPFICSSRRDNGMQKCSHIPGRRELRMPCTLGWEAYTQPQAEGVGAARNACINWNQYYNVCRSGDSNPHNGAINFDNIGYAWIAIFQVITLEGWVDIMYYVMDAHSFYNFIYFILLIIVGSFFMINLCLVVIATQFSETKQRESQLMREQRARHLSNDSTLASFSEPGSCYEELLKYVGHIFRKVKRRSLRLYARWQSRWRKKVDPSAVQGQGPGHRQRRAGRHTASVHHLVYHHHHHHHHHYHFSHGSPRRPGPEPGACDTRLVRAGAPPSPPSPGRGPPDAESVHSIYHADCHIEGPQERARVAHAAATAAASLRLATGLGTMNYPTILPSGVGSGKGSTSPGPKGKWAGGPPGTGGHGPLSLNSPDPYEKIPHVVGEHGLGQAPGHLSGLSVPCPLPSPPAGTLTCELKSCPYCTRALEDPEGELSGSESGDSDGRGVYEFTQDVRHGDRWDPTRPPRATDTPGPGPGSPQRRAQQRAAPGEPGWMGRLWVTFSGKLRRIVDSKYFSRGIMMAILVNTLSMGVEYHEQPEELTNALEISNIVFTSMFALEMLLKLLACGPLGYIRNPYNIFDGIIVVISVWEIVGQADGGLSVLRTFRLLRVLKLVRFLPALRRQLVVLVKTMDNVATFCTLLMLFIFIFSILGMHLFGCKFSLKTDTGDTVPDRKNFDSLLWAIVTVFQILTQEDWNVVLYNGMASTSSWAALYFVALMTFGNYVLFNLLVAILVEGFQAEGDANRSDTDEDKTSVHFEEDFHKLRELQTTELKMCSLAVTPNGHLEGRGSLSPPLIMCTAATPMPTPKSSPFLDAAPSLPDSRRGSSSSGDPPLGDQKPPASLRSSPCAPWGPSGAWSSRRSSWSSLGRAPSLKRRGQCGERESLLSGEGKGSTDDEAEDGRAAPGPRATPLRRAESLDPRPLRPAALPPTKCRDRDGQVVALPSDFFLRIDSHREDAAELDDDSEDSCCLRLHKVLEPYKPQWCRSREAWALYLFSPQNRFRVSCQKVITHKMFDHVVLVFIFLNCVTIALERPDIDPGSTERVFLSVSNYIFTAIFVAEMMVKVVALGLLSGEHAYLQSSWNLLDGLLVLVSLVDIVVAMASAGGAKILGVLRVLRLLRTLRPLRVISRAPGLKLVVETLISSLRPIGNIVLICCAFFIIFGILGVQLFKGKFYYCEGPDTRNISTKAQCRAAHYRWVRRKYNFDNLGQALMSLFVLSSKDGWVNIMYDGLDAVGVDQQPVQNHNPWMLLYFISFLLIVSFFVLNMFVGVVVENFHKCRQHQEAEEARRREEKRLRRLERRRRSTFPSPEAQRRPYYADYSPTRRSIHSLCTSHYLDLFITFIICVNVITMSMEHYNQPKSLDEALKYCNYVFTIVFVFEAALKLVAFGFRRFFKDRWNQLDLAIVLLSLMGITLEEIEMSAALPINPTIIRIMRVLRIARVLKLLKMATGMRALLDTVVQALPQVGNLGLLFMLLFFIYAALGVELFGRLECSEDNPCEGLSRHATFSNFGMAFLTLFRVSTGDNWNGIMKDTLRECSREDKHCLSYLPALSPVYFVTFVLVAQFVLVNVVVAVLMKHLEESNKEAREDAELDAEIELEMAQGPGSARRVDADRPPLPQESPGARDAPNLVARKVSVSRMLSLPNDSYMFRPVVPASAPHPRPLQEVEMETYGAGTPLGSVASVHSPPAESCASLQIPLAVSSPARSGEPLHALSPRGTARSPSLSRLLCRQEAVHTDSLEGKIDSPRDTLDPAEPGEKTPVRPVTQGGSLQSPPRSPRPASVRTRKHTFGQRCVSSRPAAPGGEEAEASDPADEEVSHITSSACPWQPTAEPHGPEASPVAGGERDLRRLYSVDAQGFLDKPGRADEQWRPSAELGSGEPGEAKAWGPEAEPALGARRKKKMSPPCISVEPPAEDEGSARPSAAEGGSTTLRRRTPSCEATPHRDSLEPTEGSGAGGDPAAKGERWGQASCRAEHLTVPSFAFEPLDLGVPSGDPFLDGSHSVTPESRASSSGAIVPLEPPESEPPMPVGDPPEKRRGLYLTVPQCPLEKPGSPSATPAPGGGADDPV

IC50 [2] [µM] | inhibition [3] [%] | Compound | other results
– | – | N#Cc1cccc(N2C(=O)C3(CCN(C(=O)Nc4cc(F)cc(F)c4)CC3)C2c2ccccn2)c1 (centres undefined) | IC50 [1]: 19.3 µM
3.33 | 6 | COC(=O)[C@H](CO)NC(=O)N1CCC2(CC1)C(=O)N(c1cccc(F)c1)C2c1ccc(Cl)cc1 (some centres undefined) | –
– | 2.4 | C[C@H](NC(=O)N1CCC2(CC1)C(=O)N(c1cccc(F)c1)C2c1ccc(Cl)cc1)c1ccc(F)cc1 (some centres undefined) | fraction unbound [4]: 0.001
1.25 | 5.2 | CCC(C)NC(=O)N1CCC2(CC1)C(=O)N(c1cccc(F)c1)C2c1ccc(Cl)cc1 (centres undefined) | –
0.044 | 37.9 | O=C1N(c2cccc(Cl)c2)C(c2ccccn2)C12CCN(c1nc3cc(F)c(C(F)(F)F)cc3[nH]1)CC2 (centres undefined) | IC50 [1]: 0.063 µM
0.06 | 8.6 | O=C1N(c2ccc(F)c(Cl)c2)C(c2ccccn2)C12CCN(c1nc3cc(F)c(Cl)cc3[nH]1)CC2 (centres undefined) | fraction unbound [4]: 0.002; IC50 [1]: 0.084 µM
0.035 | – | CC[C@H](C)[C@H](NC(=O)N1CCC2(CC1)C(=O)N(c1cccc(F)c1)C2c1ccc(Cl)cc1)C(=O)OC#N (some centres undefined) | IC50 [1]: 17 µM
– | 4.8 | CC[C@H](C)[C@H](NC(=O)N1CCC2(CC1)C(=O)N(c1cccc(F)c1)C2c1ccc(Cl)cc1)C(=O)NC (some centres undefined) | –
– | 18 | CC[C@H](C)[C@H](NC(=O)N1CCC2(CC1)C(=O)N(c1cccc(F)c1)C2c1ccc(Cl)cc1)C(=O)OC(C)C (some centres undefined) | –
– | 4.4 | COC(=O)[C@H](COC(C)(C)C)NC(=O)N1CCC2(CC1)C(=O)N(c1cccc(F)c1)C2c1ccc(Cl)cc1 (some centres undefined) | –
0.41 | 25.2 | CC[C@H](C)[C@H](NC(=O)N1CCC2(CC1)CN(C)C2c1ccc(Cl)cc1)C(=O)OC (mixture of isomers) | –
0.8 | 3.12 | CC[C@H](C)[C@H](NC(=O)N1CCC2(CC1)C(=O)N(C)C2c1ccc(Cl)cc1)C(=O)OC (mixture of isomers) | –
0.256 | 13.4 | CC[C@H](C)[C@H](NC(=O)N1CCC2(CC1)CN(C(C)C)C2c1ccc(F)cc1)C(=O)OC (mixture of isomers) | –
0.325 | – | CC[C@H](C)[C@H](NC(=O)N1CCC2(CC1)CN(C1CC1)C2c1ccc(Cl)cc1)C(=O)OC (mixture of isomers) | IC50 [1]: 0.713 µM
2.38 | – | N#Cc1cccc(N2C(=O)C3(CCN(C(=O)Nc4cc(F)cc(F)c4)CC3)C2c2ccccn2)c1 (racemic) | –
0.214 | 25 | CN1CC2(CCN(C(=O)Nc3cc(F)cc(F)c3)CC2)C1c1ccc(Cl)cc1 (racemic) | –
0.92 | 20.7 | CN1C(=O)C2(CCN(C(=O)Nc3cc(F)cc(F)c3)CC2)C1c1ccc(Cl)cc1 (racemic) | fraction unbound [4]: 0.034
0.177 | 53 | CC(C)CN1CC2(CCN(C(=O)Nc3cc(F)cc(F)c3)CC2)C1c1ccc(Cl)cc1 (racemic) | –
0.172 | 46.5 | CC(C)N1CC2(CCN(C(=O)Nc3cc(F)cc(F)c3)CC2)C1c1ccc(F)cc1 (racemic) | IC50 [1]: 0.995 µM
0.41 | 21.8 | CN1CC2(CCN(C(=O)Nc3cc(F)cc(F)c3)CC2)C1c1ccc(F)cc1 (racemic) | fraction unbound [4]: 0.05

IC50 [2] [µM] | inhibition [3] [%] | Compound | other results
0.398 | – | O=C(Nc1cc(F)cc(F)c1)N1CCC2(CC1)CN(C1CC1)C2c1ccc(Cl)cc1 (racemic) | fraction unbound [4]: 0.002
2.26 | 34.2 | O=C(Nc1cc(F)cc(F)c1)N1CCC2(CC1)C(=O)N(C1CC1)C2c1ccc(Cl)cc1 (racemic) | –
– | 6.7 | O=C(Nc1cc(F)cc(F)c1)N1CCC2(CC1)C(=O)N(c1cncc(Cl)c1)C2c1ccccn1 (racemic) | –
– | 87.1 | CC[C@H](C)[C@H](NC(=O)N1CCC2(CC1)CN(C(C)C)C2c1ccc(Cl)cc1)C(=O)OC (stereo in doubt; 2) | –
0.115 | – | CC[C@H](C)[C@H](NC(=O)N1CCC2(CC1)CN(C(C)C)C2c1ccc(Cl)cc1)C(=O)OC (stereo in doubt; 2a) | IC50 [1]: 0.124 µM
0.733 | – | CC[C@H](C)[C@H](NC(=O)N1CCC2(CC1)CN(C(C)C)C2c1ccc(Cl)cc1)C(=O)OC (stereo in doubt; 2b) | IC50 [1]: 3.2 µM
0.146 | – | CC[C@H](C)[C@H](NC(=O)N1CCC2(CC1)CN(c1cccc(F)c1)C2c1ccc(Cl)cc1)C(=O)OC (stereo in doubt; 22a) [listing 1 of 2 here] | –
– | 8.5 | CC[C@H](C)[C@H](NC(=O)N1CCC2(CC1)CN(c1cccc(F)c1)C2c1ccc(Cl)cc1)C(=O)OC (stereo in doubt; 22a) [listing 2 of 2 here] | –
3.2 | – | CC[C@H](C)[C@H](NC(=O)N1CCC2(CC1)CN(c1cccc(F)c1)C2c1ccc(Cl)cc1)C(=O)OC (stereo in doubt; 22b) [listing 1 of 2 here] | –
– | 12.5 | CC[C@H](C)[C@H](NC(=O)N1CCC2(CC1)CN(c1cccc(F)c1)C2c1ccc(Cl)cc1)C(=O)OC (stereo in doubt; 22b) [listing 2 of 2 here] | –
0.045 | – | CC[C@H](C)[C@H](NC(=O)N1CCC2(CC1)C(=O)N(c1cccc(F)c1)C2c1ccc(Cl)cc1)C(=O)OC (stereo in doubt; 23a) [listing 1 of 2 here] | IC50 [1]: 0.109 µM
– | 6.18 | CC[C@H](C)[C@H](NC(=O)N1CCC2(CC1)C(=O)N(c1cccc(F)c1)C2c1ccc(Cl)cc1)C(=O)OC (stereo in doubt; 23a) [listing 2 of 2 here] | –
0.872 | – | CC[C@H](C)[C@H](NC(=O)N1CCC2(CC1)C(=O)N(c1cccc(F)c1)C2c1ccc(Cl)cc1)C(=O)OC (stereo in doubt; 23b) [listing 1 of 2 here] | –
– | 8.79 | CC[C@H](C)[C@H](NC(=O)N1CCC2(CC1)C(=O)N(c1cccc(F)c1)C2c1ccc(Cl)cc1)C(=O)OC (stereo in doubt; 23b) [listing 2 of 2 here] | –
3.5 | – | O=C(Nc1cc(F)cc(F)c1)N1CCC2(CC1)CN(c1cccc(F)c1)C2c1ccc(Cl)cc1 (stereo in doubt; 35a) [listing 1 of 2 here] | –
– | 6.22 | O=C(Nc1cc(F)cc(F)c1)N1CCC2(CC1)CN(c1cccc(F)c1)C2c1ccc(Cl)cc1 (stereo in doubt; 35a) [listing 2 of 2 here] | –
3.2 | – | O=C(Nc1cc(F)cc(F)c1)N1CCC2(CC1)CN(c1cccc(F)c1)C2c1ccc(Cl)cc1 (stereo in doubt; 35b) [listing 1 of 2 here] | –
– | 30.1 | O=C(Nc1cc(F)cc(F)c1)N1CCC2(CC1)CN(c1cccc(F)c1)C2c1ccc(Cl)cc1 (stereo in doubt; 35b) [listing 2 of 2 here] | –
0.586 | – | O=C(Nc1cc(F)cc(F)c1)N1CCC2(CC1)C(=O)N(c1cccc(F)c1)C2c1ccc(Cl)cc1 (stereo in doubt; 36a) [listing 1 of 2 here] | –
– | 19.3 | O=C(Nc1cc(F)cc(F)c1)N1CCC2(CC1)C(=O)N(c1cccc(F)c1)C2c1ccc(Cl)cc1 (stereo in doubt; 36a) [listing 2 of 2 here] | –

IC50 [2] [µM] | inhibition [3] [%] | Compound | other results
– | 6.79 | O=C(Nc1cc(F)cc(F)c1)N1CCC2(CC1)C(=O)N(c1cccc(F)c1)C2c1ccc(Cl)cc1 (stereo in doubt; 36b) | –
– | 4.79 | N#Cc1cccc(NC(=O)N2CCC3(CC2)C(=O)N(c2cccc(F)c2)C3c2ccc(Cl)cc2)c1 (stereo in doubt; 37a) | –
1.06 | – | N#Cc1cccc(NC(=O)N2CCC3(CC2)C(=O)N(c2cccc(F)c2)C3c2ccc(Cl)cc2)c1 (stereo in doubt; 37b) [listing 1 of 2 here] | –
– | 12.7 | N#Cc1cccc(NC(=O)N2CCC3(CC2)C(=O)N(c2cccc(F)c2)C3c2ccc(Cl)cc2)c1 (stereo in doubt; 37b) [listing 2 of 2 here] | –
0.291 | – | O=C(Nc1cc(F)cc(F)c1)N1CCC2(CC1)CN(c1ccc(F)c(Cl)c1)C2c1ccccn1 (stereo in doubt; 38b) | fraction unbound [4]: 0.001
0.176 | – | O=C(Nc1cc(F)cc(F)c1)N1CCC2(CC1)C(=O)N(c1ccc(F)c(Cl)c1)C2c1ccccn1 (stereo in doubt; 39b) | –
0.041 | – | O=C(Nc1ccc(F)c(F)c1)N1CCC2(CC1)C(=O)N(c1ccc(F)c(Cl)c1)C2c1ccccn1 (stereo in doubt; 40a) [listing 1 of 2 here] | fraction unbound [4]: 0.004; IC50 [1]: 17.7 µM
– | 48 | O=C(Nc1ccc(F)c(F)c1)N1CCC2(CC1)C(=O)N(c1ccc(F)c(Cl)c1)C2c1ccccn1 (stereo in doubt; 40a) [listing 2 of 2 here] | –
0.402 | – | O=C(Nc1ccc(F)c(F)c1)N1CCC2(CC1)C(=O)N(c1ccc(F)c(Cl)c1)C2c1ccccn1 (stereo in doubt; 40b) [listing 1 of 2 here] | –
– | 39 | O=C(Nc1ccc(F)c(F)c1)N1CCC2(CC1)C(=O)N(c1ccc(F)c(Cl)c1)C2c1ccccn1 (stereo in doubt; 40b) [listing 2 of 2 here] | –
0.017 | – | O=C(Nc1cccc(C(F)(F)F)c1)N1CCC2(CC1)C(=O)N(c1ccc(F)c(F)c1)C2c1ccccn1 (stereo in doubt; 41a) | –
0.652 | – | O=C(Nc1ccc(F)c(F)c1)N1CCC2(CC1)C(=O)N(c1cccc(Cl)c1)C2c1ccccn1 (stereo in doubt; 42b) [listing 1 of 2 here] | PPB (Plasma): 99.9%
– | 89 | O=C(Nc1ccc(F)c(F)c1)N1CCC2(CC1)C(=O)N(c1cccc(Cl)c1)C2c1ccccn1 (stereo in doubt; 42b) [listing 2 of 2 here] | –
– | 30 | N#Cc1cccc(NC(=O)N2CCC3(CC2)C(=O)N(c2cccc(Cl)c2)C3c2ccccn2)c1 (stereo in doubt; 43a) | –
0.855 | – | N#Cc1cccc(NC(=O)N2CCC3(CC2)C(=O)N(c2cccc(Cl)c2)C3c2ccccn2)c1 (stereo in doubt; 43b) | fraction unbound [4]: 0.012
– | 38 | O=C(Nc1cc(F)cc(F)c1)N1CCC2(CC1)C(=O)N(c1cccc(Cl)c1)C2c1ccccn1 (stereo in doubt; 44a) | –
0.2 | – | O=C(Nc1cc(F)cc(F)c1)N1CCC2(CC1)C(=O)N(c1cccc(Cl)c1)C2c1ccccn1 (stereo in doubt; 44b) | PPB (Plasma): 99.5%
0.031 | – | O=C1N(c2ccc(F)c(Cl)c2)C(c2ccccn2)C12CCN(c1nc3cc(F)c(C(F)(F)F)cc3[nH]1)CC2 (stereo in doubt; 52b) | IC50 [1]: 0.106 µM
0.698 | – | O=C(Nc1ccc(F)c(F)c1)N1CCC2(CC1)C(=O)N(c1cccc(Cl)c1)C2c1cccc[n+]1[O-] (stereo in doubt; form 1) | fraction unbound [4]: 0.066
1.5 | – | O=C(Nc1ccc(F)c(F)c1)N1CCC2(CC1)C(=O)N(c1cccc(Cl)c1)C2c1cccc[n+]1[O-] (stereo in doubt; form 2) | –
